Experimental data from patent US20060058315A1, “2-Oxo-ethanesulfonamide derivates” (AstraZeneca AB, priority 2002, published 2006).

Target: T1, human 11βHSD1 (Homo sapiens, UniProt P28845)
T1 construct: a construct containing full-length human 11βHSD1 enzyme (in pCMVHyg); expressed in transfected cells
Assay: HeLa GRE4-βGal/11βHSD1 cell reporter assay (β-galactosidase production)
Type: cell-based
Conditions: HeLa GRE4-βGal/11βHSD1 cells, cortisone 1 μM, overnight incubation, absorbance at 570 nm
Description: HeLa cells (human cervical carcinoma derived cells) were stably transfected with a construct containing four copies of the glucocorticoid response element (GRE) linked to a beta-galactosidase reporter gene (3 kb lac Z gene derived from pSV-B-galactosidase). These cells were then further stably transfected with a construct containing full-length human 11βHSD1 enzyme (in pCMVHyg) to create GRE4-βGal/11βHSD1 cells. The principal of the assay is as follows. Cortisone is freely taken up by the cells and is converted to cortisol by 11βHSD1 oxo-reductase activity and cortisol (but not cortisone) binds to and activates the glucocorticoid receptor. Activated glucocorticoid receptor then binds to the GRE and initiates transcription and translation of β-galactosidase. Enzyme activity can then be assayed with high sensitivity by colourimetric assay.
Cells were routinely cultured in DMIM (Invitrogen, Paisley, Renfrewshire, UK) containing 10% foetal calf serum (LabTech), 1% glutamine (Invitrogen), 1% penicillin & streptomycin (Invitrogen), 0.5 mg/ml G418 (Invitrogen) & 0.5 mg/ml hygromycin (Boehringer). Assay media was phenol red free-DMEM containing 1% glutamine, 1% penicillin & streptomycin.
Compounds (1 mM) to be tested were dissolved in dimethyl sulphoxide (DMSO) and serially diluted into assay media containing […]. […]
A cocktail (25 μl) consisting of 10× Z-buffer (600 mM Na2HPO4, 400 mM NaH2PO4.2H2O, 100 mM KCl, 10 mM MgSO4.7H2O, 500 mM, β-mercaptoethanol, pH 7.0), SDS (0.2%), chlorophenol red-β-D-galactopyranoside (5 mM, Roche Diagnostics) was added per well and plates incubated at 37° C. for 3-4 hours. β-Galactosidase activity was indicated by a yellow to red colour change (absorbance at 570 nm) measured using a Tecan Spectrafluor Ultra.
The calculation of median inhibitory concentration (IC50) values for the inhibitors was performed using Origin 6.0 (Microcal Software, Northampton M A USA). Dose response curves for each inhibitor were plotted as OD units at each inhibitor concentration with relation to a maximum signal (cortisone, no compound) and IC50 values calculated. […]

T1 sequence (P28845 whole entry): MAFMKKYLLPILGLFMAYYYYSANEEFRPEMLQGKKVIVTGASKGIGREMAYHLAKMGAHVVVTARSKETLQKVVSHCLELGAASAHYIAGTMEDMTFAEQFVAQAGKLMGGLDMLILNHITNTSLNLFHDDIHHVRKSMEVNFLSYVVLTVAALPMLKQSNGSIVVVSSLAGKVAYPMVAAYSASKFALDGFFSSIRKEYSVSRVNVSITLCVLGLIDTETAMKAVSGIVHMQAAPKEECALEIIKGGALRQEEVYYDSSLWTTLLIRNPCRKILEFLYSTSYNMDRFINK

Row | Compound | IC50 [µM]
1 | CN(C)S(=O)(=O)CC(=O)c1ccccn1 [Example 2, (N,N-Dimethylsulphamoylmethyl)(pyrid-2-yl)ketone] | 0.072
2 | CN(C)S(=O)(=O)CC(=O)c1cnccn1 [Example 14] | 0.047
3 | CC(C)Oc1ccc(C(=O)CS(=O)(=O)N(C(C)C)C(C)C)cc1 [Example 75] | 0.06
